# According to article PMC3401643 (2009):
# Molecular target: T1, retinoid X receptor α (RXRα) (Homo sapiens, UniProt P19793)
# T1 sequence (P19793 223-462): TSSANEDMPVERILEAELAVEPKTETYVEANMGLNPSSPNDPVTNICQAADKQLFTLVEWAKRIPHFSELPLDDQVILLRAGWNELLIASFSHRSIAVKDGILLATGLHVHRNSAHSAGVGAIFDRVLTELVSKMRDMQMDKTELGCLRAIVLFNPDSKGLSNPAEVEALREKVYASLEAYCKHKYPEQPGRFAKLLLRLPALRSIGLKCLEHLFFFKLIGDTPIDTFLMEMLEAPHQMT
# Assay type: binding
smiles,measurement,value
"C[C@@H](C(=O)O)c1ccc(-c2ccccc2)c(F)c1 [R-Flur, (R)-flurbiprofen]",IC50,~75 µM
